The values that follow come from patent US11547681B2, “N-acylethanolamide derivatives and uses thereof” (ELIEM THERAPEUTICS, INC., priority 2016, dated 2023).

The data set is described as follows: in vitro. The conditions noted are these: male; for Measured concentration of analyte PEA, 0 min / Measured concentration of analyte PEA, 10 min / Measured concentration of analyte PEA, 20 min / Measured concentration of analyte PEA, 30 min / Measured concentration of analyte PEA, 60 min / % Remaining of Initial, 0 min / % Remaining of Initial, 10 min / % Remaining of Initial, 20 min / % Remaining of Initial, 30 min / % Remaining of Initial, 60 min / Measured concentration of PEA (analyte) / % Remaining of Initial / Concentration, analyte PEA / % Remaining of Initial (n = 1): 1 μM; for % Remaining of Initial, 0 min / % Remaining of Initial, 10 min / % Remaining of Initial, 20 min / % Remaining of Initial, 30 min / % Remaining of Initial, 60 min / microsomal CLint at 1 μM / half-life at 1 μM / % Remaining of Initial / % Remaining of Initial (n = 1): microsomes. As for the experimental part:
(§1) Reaction mixture, minus cofactors, was prepared as described below. Test article was added into the reaction mixture at a final concentration of 1 μM. […] An aliquot of the reaction mixture (without cofactor) was equilibrated in a shaking water bath at 37° C. for 3 minutes. The reaction was initiated by the addition of cofactor, and the mixture was incubated in a shaking water bath at 37° C. Aliquots (100 μL) were withdrawn at 0, 10, 20, 30, and 60 minutes. Test article samples were immediately combined with 300 μL of ice-cold acetonitrile containing 1% formic acid. Control samples were immediately combined with 400 μL of ice-cold 50/50 acetonitrile (ACN)/dH2O containing 0.1% formic acid and internal standard to terminate the reaction. Samples were then mixed and centrifuged to precipitate proteins. Calibration standards were prepared in matched matrix. Samples and standards were assayed by LC-MS/MS using electrospray ionization for both dosed prodrug and expected drug (PEA). Analytical conditions are outlined in Appendix 8-1. Test article concentration at each time point was compared to test article concentration at time 0 to determine the percent remaining at each time point. Half-lives were calculated using GraphPad software, fitting to a single-phase exponential decay equation.
Reaction mixture, minus cofactors, was prepared as described below. Test article was added into the reaction mixture at a final concentration of 1 μM. […] An aliquot of the reaction mixture (without cofactor) was equilibrated in a shaking water bath at 37° C. for 5 minutes. Reaction was initiated by the addition of cofactor, and the mixture was incubated in a shaking water bath at 37° C. Aliquots (100 μL) were withdrawn at 0, 10, 20, 30, and 60 minutes. Test article samples were immediately combined with 300 μL of ice-cold acetonitrile containing 1% formic acid. Control samples were immediately combined with 400 μL of ice-cold 50/50 acetonitrile (ACN)/dH2O containing 0.1% formic acid and internal standard to terminate the reaction. Samples were then mixed and centrifuged to precipitate proteins. Calibration standards were prepared in matched matrix. Samples and standards were assayed by LC-MS/MS using electrospray ionization for both the dosed prodrug and the expected drug (PEA). Analytical conditions are outlined in Appendix 10-1. Test article concentration at each time point was compared to the test article concentration at time 0 to determine the percent remaining at each time point. Half-lives were calculated using GraphPad software, fitting to a single-phase exponential decay equation.
as §1, with “minutes. Reaction” for “minutes. The reaction”, “300 μL,” for “300 μL”, “Appendix 13-1.” for “Appendix 8-1.”
Reaction mixture, minus cofactors, was prepared as described below.

For the compound `CCCCCCCCCCCCCCCC(=O)NCCOC(=O)CCC(=O)OC[C@H]1O[C@@](CO)(O[C@H]2O[C@H](CO)[C@@H](O)[C@H](O)[C@H]2O)[C@@H](O)[C@@H]1O` [Compound I-7], the “Measured concentration of analyte PEA, 0 min” value (Beagle, dog, 0 min) is 0.59 µM and the “Measured concentration of analyte PEA, 0 min” value (CD-1, mouse, 0 min) was determined as 0.28 µM. Besides, the “Measured concentration of analyte PEA, 10 min” value (from here on “Measured concentration … 10 min”) (Beagle, dog, 10 min) is 0.50 µM and the “Measured concentration … 10 min” value (CD-1, mouse, 10 min) is 0.29 µM. Also, the “Measured concentration of analyte PEA, 20 min” value (“Measured concentration … 20 min” for short) reads like this: (Beagle, dog, 20 min) 0.47 µM; (CD-1, mouse, 20 min) 0.18 µM. For the same compound, the “Measured concentration of analyte PEA, 30 min” value (“Measured concentration … 30 min” for short) (Beagle, dog, 30 min) came out at 0.38 µM and the “Measured concentration … 30 min” value (CD-1, mouse, 30 min) was found to be 0.11 µM. The “Measured concentration of analyte PEA, 60 min” value (“Measured concentration … 60 min” for short) reads like this: (Beagle, dog, 60 min) 0.20 µM; (CD-1, mouse, 60 min) 0.034 µM. Moreover, the “% Remaining of Initial, 0 min” value is listed as 100% (Beagle, dog, 0 h) and 100% (CD-1, mouse, 0 h). Further, the “% Remaining of Initial, 10 min” value (Beagle, dog, 10 min) was determined as 1.6% and the “% Remaining of Initial, 10 min” value (CD-1, mouse, 10 min) is given as 1.7%. Besides, the “% Remaining of Initial, 20 min” value is, setting by setting: (Beagle, dog, 20 min) 1.4%; (CD-1, mouse, 20 min) 1.2%. Also, the “% Remaining of Initial, 30 min” value reads like this: (Beagle, dog, 0.5 h) 1.3%; (CD-1, mouse, 0.5 h) below 1.0%. Also, the “% Remaining of Initial, 60 min” value runs as follows: (Beagle, dog, 1 h) below 1.0%; (CD-1, mouse, 1 h) below 1.0%. Further, the microsomal CLint at 1 μM runs as follows: (Beagle, dog) 823 µL/min/mg; (CD-1, mouse) 814 µL/min/mg. For the same compound, the half-life at 1 μM by setting is: (Beagle, dog) 1.7 min; (CD-1, mouse) 1.7 min.
Turning to `CCCCCCCCCCCCCCCC(=O)NCCOC(=O)CCC(=O)OC(CO)CO` [Compound I-8], the “Measured concentration of PEA (analyte)” value runs as follows: (Beagle, dog, 0 min) 0.33 µM; (Beagle, dog, 10 min) 0.54 µM; (Beagle, dog, 20 min) 0.46 µM; (Beagle, dog, 30 min) 0.44 µM; (Beagle, dog, 60 min) 0.20 µM; (CD-1, mouse, 0 min) 0.45 µM. The “Measured concentration of PEA (analyte)” value (CD-1, mouse, 10 min) stood at 0.30 µM; the “Measured concentration of PEA (analyte)” value (CD-1, mouse, 20 min) is 0.15 µM; the “Measured concentration of PEA (analyte)” value (CD-1, mouse, 30 min) was 0.086 µM; the “Measured concentration of PEA (analyte)” value (CD-1, mouse, 60 min) came to 0 µM. For the same compound, the “% Remaining of Initial” value runs as follows: (Beagle, dog, 0 h) 100%; (Beagle, dog, 10 min) below 1.0%; (Beagle, dog, 20 min) below 1.0%; (Beagle, dog, 0.5 h) below 1.0%; (Beagle, dog, 1 h) below 1.0%; (CD-1, mouse, 0 h) 100%. Also, the “% Remaining of Initial” value is on record as below 1.0% (CD-1, mouse, 10 min); below 1.0% (CD-1, mouse, 20 min); below 1.0% (CD-1, mouse, 0.5 h); below 1.0% (CD-1, mouse, 1 h). In addition, the microsomal CLint at 1 μM was above 1380 µL/min/mg (Beagle, dog) and above 1380 µL/min/mg (CD-1, mouse). Besides, the half-life at 1 μM reads like this: (Beagle, dog) below 1 min; (CD-1, mouse) below 1 min.
In the case of `CCCCCCCCCCCCCCCC(=O)NCCOC(=O)CCC(=O)OCC(O)CO` (stereo not drawn) [Compound I-9], the “Measured concentration of analyte PEA, 0 min” value came out at 0.39 µM (Beagle, dog, 0 min) and 0.52 µM (CD-1, mouse, 0 min). Moreover, the “Measured concentration … 10 min” value came to 0.42 µM (Beagle, dog, 10 min) and 0.29 µM (CD-1, mouse, 10 min). For the same compound, the “Measured concentration … 20 min” value was 0.32 µM (Beagle, dog, 20 min) and 0.18 µM (CD-1, mouse, 20 min). Further, the “Measured concentration … 30 min” value by setting is: (Beagle, dog, 30 min) 0.26 µM; (CD-1, mouse, 30 min) 0.11 µM. Further, the “Measured concentration … 60 min” value (Beagle, dog, 60 min) is 0.18 µM and the “Measured concentration … 60 min” value (CD-1, mouse, 60 min) was found to be 0.036 µM. Moreover, the “% Remaining of Initial, 0 min” value is, setting by setting: (Beagle, dog, 0 h) 100%; (CD-1, mouse, 0 h) 100%. The “% Remaining of Initial, 10 min” value (Beagle, dog, 10 min) is listed as below 1.0% and the “% Remaining of Initial, 10 min” value (CD-1, mouse, 10 min) is below 1.0%. For the same compound, the “% Remaining of Initial, 20 min” value runs as follows: (Beagle, dog, 20 min) below 1.0%; (CD-1, mouse, 20 min) below 1.0%. Further, the “% Remaining of Initial, 30 min” value (Beagle, dog, 0.5 h) was below 1.0% and the “% Remaining of Initial, 30 min” value (CD-1, mouse, 0.5 h) is on record as below 1.0%. For the same compound, the “% Remaining of Initial, 60 min” value is reported as below 1.0% (Beagle, dog, 1 h) and below 1.0% (CD-1, mouse, 1 h). The microsomal CLint at 1 μM is above 1380 µL/min/mg (Beagle, dog) and above 1380 µL/min/mg (CD-1, mouse). Further, the half-life at 1 μM runs as follows: (Beagle, dog) below 1 min; (CD-1, mouse) below 1 min.
Take `CCCCCCCCCCCCCCCC(=O)NCCOC(=O)CCC(=O)OCC(COC(=O)CCC)OC(=O)CCC` (stereo not drawn) [Compound I-11]: the “Measured concentration of analyte PEA, 0 min” value reads like this: (Beagle, dog, 0 min) 0.032 µM; (CD-1, mouse, 0 min) 0.22 µM. The “Measured concentration … 10 min” value by setting is: (Beagle, dog, 10 min) 0.32 µM; (CD-1, mouse, 10 min) 0.32 µM. Also, the “Measured concentration … 20 min” value (Beagle, dog, 20 min) turned out to be 0.26 µM and the “Measured concentration … 20 min” value (CD-1, mouse, 20 min) is 0.18 µM. Further, the “Measured concentration … 30 min” value is 0.20 µM (Beagle, dog, 30 min) and 0.12 µM (CD-1, mouse, 30 min). Moreover, the “Measured concentration … 60 min” value reads like this: (Beagle, dog, 60 min) 0.097 µM; (CD-1, mouse, 60 min) 0.030 µM. Moreover, the “% Remaining of Initial, 0 min” value (Beagle, dog, 0 h) turned out to be 100% and the “% Remaining of Initial, 0 min” value (CD-1, mouse, 0 h) came out at 100%. Further, the “% Remaining of Initial, 10 min” value came out at 3.6% (Beagle, dog, 10 min) and 3.2% (CD-1, mouse, 10 min). Besides, the “% Remaining of Initial, 20 min” value reads like this: (Beagle, dog, 20 min) below 1.0%; (CD-1, mouse, 20 min) below 1.0%. For the same compound, the “% Remaining of Initial, 30 min” value by setting is: (Beagle, dog, 0.5 h) below 1.0%; (CD-1, mouse, 0.5 h) below 1.0%. Further, the “% Remaining of Initial, 60 min” value runs as follows: (Beagle, dog, 1 h) below 1.0%; (CD-1, mouse, 1 h) below 1.0%. The microsomal CLint at 1 μM worked out at 665 µL/min/mg (Beagle, dog) and 687 µL/min/mg (CD-1, mouse). Besides, the half-life at 1 μM by setting is: (Beagle, dog) 2.1 min; (CD-1, mouse) 2 min.
For `CCCCC/C=C\C/C=C\CCCCCCCC(=O)OCC(COC(=O)CCC(=O)OCCNC(=O)CCCCCCCCCCCCCCC)OC(=O)CCCCCCC/C=C\C/C=C\CCCCC` (stereo not drawn) [Compound I-13], the “Concentration, analyte PEA” value is 0 nM (Beagle, dog, 0 min); 0 nM (Beagle, dog, 10 min); 0 nM (Beagle, dog, 20 min); 0 nM (Beagle, dog, 30 min); 0 nM (Beagle, dog, 60 min); 0 nM (CD-1, mouse, 0 min). The “Concentration, analyte PEA” value by setting is: (CD-1, mouse, 10 min) 0 nM; (CD-1, mouse, 20 min) 0 nM; (CD-1, mouse, 30 min) 0 nM; (CD-1, mouse, 60 min) 0 nM. Besides, the “% Remaining of Initial (n = 1)” value by setting is: (Beagle, dog, 0 h) 100%; (Beagle, dog, 10 min) 78%; (Beagle, dog, 20 min) 76%; (Beagle, dog, 0.5 h) 56%; (Beagle, dog, 1 h) 32%; (CD-1, mouse, 0 h) 100%. Also, the “% Remaining of Initial (n = 1)” value is, setting by setting: (CD-1, mouse, 10 min) 69%; (CD-1, mouse, 20 min) 75%; (CD-1, mouse, 0.5 h) 54%; (CD-1, mouse, 1 h) 44%. Besides, the microsomal CLint at 1 μM was 36.2 µL/min/mg (Beagle, dog) and 29.1 µL/min/mg (CD-1, mouse). The half-life at 1 μM by setting is: (Beagle, dog) 38 min; (CD-1, mouse) 48 min.
